Experimental data from US9464113B2, “Anti-heparan sulfate peptides that block herpes simplex virus infection in vivo” (The Board of Trustees of the University of Illinois, priority 2010, dated 2016).

Test system: HSV-1 (KOS) gL86
Experiment: HSV-1 entry into primary human corneal fibroblasts (CF)
Type: cell-based, herpes simplex virus type-1
Conditions: CF, 6 h, ONPG (FIG. 4A)
Protocol: HSV-1 entry was assayed as described in Shukla et al., Cell 99:13-22 (1999). CHO-K1 cells were grown in 6-well plates to subconfluence and then transfected with 2.5 μg of expression plasmids for gD receptors nectin-1 (pBG38), HVEM (pBec10), 3-OST-3 isoform (pDS43), or pCDNA3.1 (empty vector) using LipofectAMINE (Gibco/BRL). At 16 h post-transfection, the cells were replated into 96-well dishes for pre-incubation with peptides at different concentrations for 60 min at room temperature. In parallel, natural target cells (HeLa, CF, and RPE) were also pre-treated with the peptides for the same duration. In all cases, unbound peptides were removed after washing 3× with PBS. Thereafter, cells were infected for 6 h with a recombinant virus, HSV-1 (KOS) gL86, at multiple plaque forming units (PFUs) and β-galactosidase assays were performed using either a soluble substrate o-nitrophenyl-β-D-galactopyranoside (ONPG at 3.0 mg/ml; ImmunoPure, Pierce) or X-gal (Sigma). For the soluble substrate, the enzymatic activity was measured at 410 nm using a micro-plate reader (Spectra Max 190, Molecular Devices, Sunnyvale, Calif.). For the X-gal assay, cells were fixed (2% formaldehyde and 0.2% glutaraldehyde) and permeabilized (2 mM MgCl2, 0.01% deoxycholate, and 0.02% nonidet NP-40 (Sigma)). 1 ml of β-galactosidase reagent (1.0 mg/ml X-gal in ferricyanide buffer) was added to each well and incubated at 37° C. for 90 min before the cells were examined using bright field microscopy under the 20× objectives of the inverted microscope (Zeiss Axiovert 100 M).
The ability of the G1 and G2 peptides to block HSV-1 entry into natural target cells (HeLa and primary cultures of human CF) was compared. A similar dosage response curve was generated when HeLa (FIG. 2A) or CF (FIG. 2B) were pre-treated with G1 or G2 peptides during HSV-1 entry. […] HeLa cells (FIG. 2A) and primary cultures of human corneal fibroblasts (CF) (FIG. 2B) were tested. Cells in 96-well plates were pre-treated for 60 min with indicated mM concentrations of G1, G2, or Cp peptides. Mock-treated cells (abbreviated as C) served as a control. Pretreated cells were infected with a β galactosidase-expressing recombinant virus HSV-1 (KOS) HSV-1 gL86 (25 pfu/cell) for 6 hr. Viral entry was quantitated as described above in reference to FIG. 1. Confirmation of HSV-1 entry blocking activity of G1, G2, and control (Cp) peptides on a per cell basis was obtained after cells were infected as described above followed by X-gal (1.0 mg/ml) staining (Right panels), which yields an insoluble blue product upon hydrolysis by β-galactosidase expressed from the input viral genomes. […] Microscopy was performed using a 20× objective of Zeiss Axiovert 100.
To better understand the inhibitory potential of G1 and G2 peptides, synthetic short variants (10-mer) were synthesized that lacked the terminal non-positively charged amino acids. In case of G1, N-terminus L and C-terminus H residues were removed. For G2, the N-terminus flanking residues (M and P) were removed. Without being bound by theory, it is believed that 12-mer peptides are too short to adopt substantial secondary or tertiary structures and that the primary structure of those peptides, which includes a defined sequence or groupings of positively charged residues, plays a critical role in mediating inhibition of HSV-1 entry. Synthetic 10-mer versions of G1 and G2 (shown above) were tested for blocking HSV-1(KOS)gL86 entry into cultured CF. After 6 h, the viral entry was measured by ONPG assay as described in FIG. 1.
Alanine (A) scanning mutagenesis was performed to identify specific amino acid residues responsible for each peptide's function, stability, and conformation. O'Nuallain et al., Biochemistry 46:13049-13058 (2007). Twelve synthetic peptides were made whereby each residue of G2 was sequentially replaced with an alanine residue and corresponding changes in the G2 peptide were evaluated for their ability to affect viral entry (FIG. 4B). […]

Sequence | ability of 10-mer version to block HSV-1 entry compared with 12-mer
RRRRIRRRQK [10-mer version of G2] | very similar to the 12-mer in its ability to block HSV-1 entry
RSRTKIIRIR [10-mer version of G1] | almost completely lost its ability to block HSV-1 entry
